Format in all cases: functional
What all share (conditions): read-out: ED50 (the source's name)

One assay concerns HT-29. The assay can be described thus: Cytotoxicity against human HT-29 cells.
The next assay concerns P388. The assay can be described thus: Cytotoxicity against mouse P388 cells.
The subject of the next assay is A549. Description: Cytotoxicity against human A549 cells.

In brackets after ≈: the same amount, converted by molar mass.

In the case of `C=C(C)[C@H]1[C@@H]2[C@H](C)CC[C@@H]2[C@@]2(C)CC[C@@H]12`, the values for the EC50 with HT-29 and with P388 were 3.2 µg/mL (≈ 15.7 µM) and 2.8 µg/mL (≈ 13.7 µM), respectively.
For `C/C(CS)=C1\[C@@H]2[C@H](C)CC[C@@H]2[C@@]2(C)CC[C@@H]12` (relative stereo) the same measures were 1.8 µg/mL (≈ 7.61 µM) and 1.3 µg/mL (≈ 5.5 µM).
With `CO[C@H](C(=O)[C@@H](O)[C@@H](C)O)[C@@H]1Cc2cc3cc(O[C@H]4C[C@@H](O[C@@H]5C[C@@H](O)[C@H](O)[C@@H](C)O5)[C@H](O)[C@@H](C)O4)c(C)c(O)c3c(O)c2C(=O)[C@H]1O[C@H]1C[C@@H](O[C@@H]2C[C@@H](O)[C@@H](O[C@@H]3C[C@](C)(O)[C@H](O)[C@@H](C)O3)[C@@H](C)O2)[C@H](O)[C@@H](C)O1` [PLICAMYCIN], the EC50 was found to be 0.08 µg/mL (≈ 0.0737 µM) in the assay with HT-29, 0.07 µg/mL (≈ 0.0645 µM) in the assay on A549 and 0.06 µg/mL (≈ 0.0553 µM) in the assay with P388.

The values are drawn from ChEMBL document CHEMBL3102797, “Kelsoenethiol and dikelsoenyl ether, two unique kelsoane-type sesquiterpenes, from the Formosan soft coral Nephthea erecta” (2014).
